Values quoted from earlier work as cited in US20070286899A1, “Photo-composition for the treatment of joint diseases” (priority 2004, published 2007).

System: patients who use methotrexate

## CN(Cc1cnc2nc(N)nc(N)c2n1)c1ccc(C(=O)N[C@@H](CCC(=O)O)C(=O)O)cc1 [methotrexate]
  patients who develop gastrointestinal problems such as diarrhea and nausea: 60%
